Results from PubChem BioAssay (NCI).
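Grown in 96-well plates, cells were treated for 48 hours with each compound at five concentrations. Insufficient inhibition: endpoint recorded as highest concentration tested. Here, GI50 denotes the concentration required for 50% inhibition of growth. TGI denotes the concentration required for complete inhibition of growth.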

How the values were obtained:
Assay in all cases: DTP human tumour cell line panel, 48 h
[1] = test system: EKVX NSCLC
[2] = test system: HCT-116 colon
[3] = test system: HCT-15 colon
[4] = test system: HT29 colon
[5] = test system: K-562 leukemia
[6] = test system: LOX IMVI melanoma
[7] = test system: MOLT-4 leukemia
[8] = test system: SK-MEL-5 melanoma
[9] = test system: SN12C renal
[10] = test system: T-47D breast

## COc1ncc(-c2ccc3nccc(C#CCN4CCN(S(C)(=O)=O)CC4)c3c2)cc1NS(=O)(=O)c1ccc(F)cc1F
[1]
  GI50: 0.146 µM
  TGI: 12.4 µM
[2]
  GI50: 0.178 µM
  TGI: 1.87 µM
[3]
  GI50: 0.0614 µM
  TGI: 1.62 µM
[4]
  GI50: 0.0237 µM
  TGI: 2.1 µM
[5]
  GI50: 0.665 µM
  TGI: > 41.3 µM
[6]
  GI50: 0.0956 µM
  TGI: 1.41 µM
[7]
  GI50: 0.0391 µM
  TGI: 2.29 µM
[8]
  GI50: 0.192 µM
  TGI: 0.723 µM
[9]
  GI50: 0.124 µM
  TGI: 11.7 µM
[10]
  GI50: < 0.01 µM
  TGI: 0.0178 µM

## CC1(C)OC2C(CO)OC(n3ccc(N)nc3=O)C2O1 (centres undefined)
[1]
  TGI: > 100 µM
[2]
  TGI: > 100 µM
[3]
  TGI: > 100 µM
[5]
  TGI: > 100 µM
[6]
  TGI: > 100 µM
[7]
  TGI: > 100 µM
[8]
  TGI: > 100 µM
[9]
  TGI: > 100 µM
[10]
  TGI: > 100 µM

## CN(CSc1ccc(Cl)cc1)c1ccc(CSc2ccc(Cl)cc2)cc1
[1]
  GI50: 3.16 µM
  TGI: 16 µM
[2]
  GI50: 3.06 µM
  TGI: 11.9 µM
[3]
  GI50: 5.18 µM
  TGI: 22.2 µM
[4]
  GI50: 12.2 µM
  TGI: 34.2 µM
[5]
  GI50: 6.64 µM
  TGI: > 100 µM
[6]
  GI50: 1.63 µM
  TGI: 6.32 µM
[7]
  GI50: 2.66 µM
  TGI: > 100 µM
[8]
  GI50: 6.85 µM
  TGI: 19.8 µM
[9]
  GI50: 1.82 µM
  TGI: 15.9 µM
[10]
  GI50: 4.22 µM
  TGI: 72 µM

## CCOc1cc(/C=C/C(=O)C(C(=O)/C=C/c2ccc(OC(=O)CNc3nnc(C)s3)c(OCC)c2)C(=O)CNc2nnc(C)s2)ccc1OC(=O)CNc1nnc(C)s1
[1]
  GI50: 3 µM
  TGI: 15.2 µM
[2]
  GI50: 0.952 µM
  TGI: 4.42 µM
[3]
  GI50: 2.16 µM
  TGI: 5.85 µM
[4]
  GI50: 0.515 µM
  TGI: 1.85 µM
[5]
  GI50: 0.352 µM
  TGI: > 100 µM
[6]
  GI50: 0.897 µM
  TGI: 2.21 µM
[7]
  GI50: 0.681 µM
  TGI: 6.56 µM
[8]
  GI50: 1.71 µM
  TGI: 3.29 µM
[9]
  GI50: 1.86 µM
  TGI: 6.4 µM
[10]
  GI50: 3.4 µM
  TGI: 35.6 µM

## CCCCN(CC)CCCCCCCCCCN1CCCc2cc(OC)ccc21
[1]
  GI50: 3.57 µM
  TGI: 25.4 µM
[2]
  GI50: 1.73 µM
  TGI: 3.63 µM
[3]
  GI50: 3.3 µM
  TGI: 13.6 µM
[4]
  GI50: 1.46 µM
  TGI: 4.29 µM
[5]
  GI50: 2.21 µM
  TGI: 5.69 µM
[6]
  GI50: 1.7 µM
  TGI: 3.34 µM
[7]
  GI50: 3.09 µM
  TGI: 10.5 µM
[8]
  GI50: 1.73 µM
  TGI: 3.12 µM
[9]
  GI50: 3.36 µM
  TGI: 15.3 µM
[10]
  GI50: 2.11 µM
  TGI: 5.83 µM

## NCCCNc1nc2ccc(Cl)cc2c2c(=O)c3cc(F)ccc3sc12
[1]
  GI50: 6 µM
  TGI: 21.2 µM
[2]
  GI50: 1.72 µM
  TGI: 3.12 µM
[3]
  GI50: 1.71 µM
  TGI: 3.48 µM
[4]
  GI50: 2.12 µM
  TGI: 4.94 µM
[5]
  GI50: 1.74 µM
  TGI: 3.73 µM
[6]
  GI50: 1.57 µM
  TGI: 2.95 µM
[7]
  GI50: 1.87 µM
  TGI: 3.95 µM
[8]
  GI50: 13.6 µM
  TGI: 30.2 µM
[9]
  GI50: 2.27 µM
  TGI: 6.08 µM
[10]
  GI50: 9.65 µM
  TGI: 34.3 µM

## N#Cc1c2ccccc2c2nnc3ccccc3n12
[1]
  GI50: 12.6 µM
  TGI: 72.1 µM
[2]
  GI50: 28 µM
  TGI: > 100 µM
[3]
  GI50: 21.5 µM
  TGI: > 100 µM
[4]
  GI50: 42.6 µM
  TGI: > 100 µM
[5]
  GI50: 81.9 µM
  TGI: > 100 µM
[6]
  GI50: 6.47 µM
  TGI: 25.2 µM
[7]
  GI50: 47.1 µM
  TGI: > 100 µM
[10]
  GI50: > 100 µM
  TGI: > 100 µM

## O=C(O)CNCCc1ccccc1
[1]
  TGI: > 100 µM
[2]
  TGI: > 100 µM
[3]
  TGI: > 100 µM
[4]
  TGI: > 100 µM
[5]
  TGI: > 100 µM
[6]
  TGI: > 100 µM
[8]
  TGI: > 100 µM
[9]
  TGI: > 100 µM
[10]
  TGI: > 100 µM

## C=C(CN1CCN(c2ccccc2C(F)(F)F)CC1)c1ccc(C(=O)Nc2ccccc2N)cc1
[1]
  GI50: 6.7 µM
  TGI: > 100 µM
[2]
  GI50: 3.09 µM
  TGI: 16.3 µM
[3]
  GI50: 4.88 µM
  TGI: > 100 µM
[4]
  GI50: 4.09 µM
  TGI: 20.2 µM
[5]
  GI50: 1.54 µM
  TGI: > 25.8 µM
[6]
  GI50: 5.86 µM
  TGI: 42.2 µM
[7]
  GI50: 0.125 µM
  TGI: 2.55 µM
[8]
  GI50: 3 µM
  TGI: 9.83 µM
[9]
  GI50: 6.43 µM
  TGI: 23.9 µM
[10]
  GI50: 7.67 µM
  TGI: > 100 µM

## Cc1cc(C(O)(c2ccc(Nc3ccccc3)cc2)c2ccc(Nc3ccc(S(=O)(=O)O)cc3)cc2)ccc1N (centres undefined)
[1]
  GI50: 1.49 µM
  TGI: 3.89 µM
[2]
  GI50: 1.21 µM
  TGI: 2.65 µM
[3]
  GI50: 1.04 µM
  TGI: 2.95 µM
[4]
  GI50: 0.516 µM
  TGI: 2.34 µM
[5]
  GI50: 0.911 µM
  TGI: > 100 µM
[6]
  GI50: 0.975 µM
  TGI: 2.17 µM
[7]
  GI50: 0.445 µM
  TGI: > 100 µM
[8]
  GI50: 1.26 µM
  TGI: 2.58 µM
[9]
  GI50: 1.82 µM
  TGI: 9.12 µM
[10]
  GI50: 0.609 µM
  TGI: 3.18 µM

## CS(=N)(=O)CCC(N)P(=O)(O)O (centres undefined)
[1]
  TGI: > 100 µM
[2]
  TGI: > 100 µM
[3]
  TGI: > 100 µM
[4]
  TGI: > 100 µM
[5]
  TGI: > 100 µM
[6]
  TGI: > 100 µM
[7]
  TGI: > 100 µM
[8]
  TGI: > 100 µM
[9]
  TGI: > 100 µM
[10]
  TGI: > 100 µM

## O=C1c2cccnc2C(=O)c2c1c(C(=O)OCCc1ccccn1)c1ccccn21
[1]
  GI50: 0.305 µM
  TGI: 3.81 µM
[2]
  GI50: 0.019 µM
  TGI: 0.318 µM
[3]
  GI50: 0.0145 µM
  TGI: 1.46 µM
[4]
  GI50: 1.54 µM
  TGI: 3.35 µM
[5]
  GI50: 0.0612 µM
  TGI: > 100 µM
[6]
  GI50: 0.0206 µM
  TGI: 1.12 µM
[7]
  GI50: 1.09 µM
  TGI: > 36.7 µM
[8]
  GI50: 0.0332 µM
  TGI: 0.299 µM
[9]
  GI50: 0.0261 µM
  TGI: 1.59 µM
[10]
  GI50: 1.71 µM
  TGI: 8.39 µM

## COc1cc2c3c(n(CCCN4CCCNCC4)c(=O)c2cc1OC)-c1cc2c(cc1C3=O)OCO2
[1]
  GI50: 7.6 µM
  TGI: 15.5 µM
[2]
  GI50: 0.282 µM
  TGI: 2.3 µM
[3]
  GI50: 1.09 µM
  TGI: 6.74 µM
[4]
  GI50: 1.15 µM
  TGI: 17.6 µM
[5]
  GI50: 0.476 µM
  TGI: 18.5 µM
[6]
  GI50: 0.165 µM
  TGI: 0.886 µM
[7]
  GI50: 0.0384 µM
  TGI: 50 µM
[8]
  GI50: 1.34 µM
  TGI: 8.21 µM
[9]
  GI50: 0.239 µM
  TGI: 1.28 µM
[10]
  GI50: 0.984 µM
  TGI: 7.98 µM

## Oc1ccc(Cc2ccc(O)c(C3CC(c4ccc(Cl)cc4)=NN3)c2)cc1C1CC(c2ccc(Cl)cc2)=NN1 (centres undefined)
[1]
  GI50: 3.2 µM
  TGI: > 100 µM
[2]
  GI50: 1.72 µM
  TGI: 5.59 µM
[3]
  GI50: 2.26 µM
  TGI: > 35.8 µM
[4]
  GI50: 6.41 µM
  TGI: > 44.6 µM
[5]
  GI50: 2.51 µM
  TGI: > 100 µM
[6]
  GI50: 2.22 µM
  TGI: 12 µM
[7]
  GI50: 2.84 µM
  TGI: > 100 µM
[8]
  GI50: 2.81 µM
  TGI: 11.5 µM
[9]
  GI50: 2.79 µM
  TGI: > 37.3 µM
[10]
  GI50: 3.15 µM
  TGI: > 39.7 µM
